For assay [1], the system named is clinical isolates of bacteria and fungus (including yeasts). In words: General antimicrobial activity, semi-quantitative score on collection of clinical isolates. On General antimicrobial activity: key: −: indicating no activity; +++++: indicating highest activity. Type of assay: cell-based. To be noted: for antimicrobial / growth-inhibitory activity (in words): Table 1 screen. The protocol:
The growth inhibitory effect of a number of various ITC compounds were tested on large collection of clinical isolates of bacteria and fungus (including yeasts), in order to establish a systematic structure-activity relationship for the ITC compounds. […] To assess the average activity for an individual ITC compound, the semi-quantitative score was calculated for each compound based on the number of sensitive bacterial strains at concentrations of 100 and 200 μM.

For assay [2], the system named is M. bovis BCG. In words: microbe, parasite or virus in culture. Type of assay: cell-based.
Assay [3] has as its system M. tuberculosis 210. In words: MIC, M. tuberculosis 210. In kind it is cell-based. The protocol: (§1) Next, several of the bifunctional ITC compounds were tested for their ability to inhibit the growth of some clinical isolates of Mycobacteria, the results of which are summarized in Table 3 below.
Assay [4] relates to M. tuberculosis AB. In words: MIC, M. tuberculosis AB. In kind it is cell-based. The protocol:
as §1

Assay [5] concerns M. scrofulaceum. In words: MIC, M. scrofulaceum. In kind it is cell-based.
In assay [6] the test system is M. tuberculosis W4. In words: MIC, M. tuberculosis W4. In kind it is cell-based. The protocol:
as §1

For assay [7], the system named is M. cansassi. In words: MIC, M. cansassi. Type of assay: cell-based.
The test system of assay [8] is M. tuberculosis W. In words: MIC, M. tuberculosis W. In kind it is cell-based. The protocol:
as §1

For assay [9], the system named is M. avium. In words: MIC, M. avium. In kind it is cell-based.
In assay [10] the test system is M. fortuitum. In words: MIC, M. fortuitum. Type of assay: cell-based.
Assay [11] concerns M. tuberculosis H37Rv. In words: MIC, M. tuberculosis H37Rv. Type of assay: cell-based. The protocol: as §1
Assay [12] has as its system M. tuberculosis P. In words: MIC, M. tuberculosis P. Type of assay: cell-based. The protocol:
as §1

The test system of assay [13] is M. intracellularie. In words: MIC, M. intracellularie. Type of assay: cell-based.
Assay [14] relates to M. tuberculosis CDC1551. In words: MIC, M. tuberculosis CDC1551. Type of assay: cell-based. The protocol:
as §1

The test system of assay [15] is Enterobacter cloacii BK12313. In words: MIC, Enterobacter cloacii BK12313. The following applies: Enterobacter cloacii BK12313; Gram −; 24 hours of incubation.
Assay [16] relates to Pseudomonas aeruginosa BK12348. In words: MIC, Pseudomonas aeruginosa BK12348. The following applies: Pseudomonas aeruginosa BK12348; Gram −; 24 hours of incubation.
The subject of assay [17] is MRSA (Staphylococcus aureus) BK12060. In words: MIC, MRSA BK12060. To be noted: MRSA BK12060; Gram +; 24 hours of incubation.
The test system of assay [18] is Bacillus cereus 4342. In words: MIC, Bacillus cereus 4342. The following applies: Bacillus cereus 4342; Gram +; 24 hours of incubation.
For assay [19], the system named is Klebsiella pneumonii BK12260. In words: MIC, Klebsiella pneumonii BK12260. To be noted: Klebsiella pneumonii BK12260; Gram −; 24 hours of incubation.
The test system of assay [20] is Staphylococcus epidermidis BK12798. In words: MIC, Staphylococcus epidermidis BK12798. To be noted: Staphylococcus epidermidis BK12798; Gram +; 24 hours of incubation.
For assay [21], the system named is Staphylococcus epidermidis BK12799. In words: MIC, Staphylococcus epidermidis BK12799. To be noted: Staphylococcus epidermidis BK12799; Gram +; 24 hours of incubation.
In assay [22] the test system is Klebsiella pneumonii BK12261. In words: MIC, Klebsiella pneumonii BK12261. The following applies: Klebsiella pneumonii BK12261; Gram −; 24 hours of incubation.
The subject of assay [23] is Acinetobacter sp., BK12787. In words: MIC, Acinetobacter sp., BK12787. The following applies: Acinetobacter sp., BK12787; Gram −; 24 hours of incubation.
Assay [24] concerns Enterococcus sp., BK11936. In words: MIC, Enterococcus sp., BK11936. The following applies: Enterococcus sp., BK11936; Gram +; 24 hours of incubation.
Assay [25] deals with Acinetobacter sp., BK12786. In words: MIC, Acinetobacter sp., BK12786. The following applies: Acinetobacter sp., BK12786; Gram −; 24 hours of incubation.
The test system of assay [26] is Escherichia coli K12. In words: MIC, Escherichia coli K12. To be noted: Escherichia coli K12; Gram −; 24 hours of incubation.
The subject of assay [27] is Shigella sp., BK 12440. In words: MIC, Shigella sp., BK 12440. The following applies: Gram −, 24 hours of incubation. Type of assay: cell-based.
Assay [28] concerns MRSA (Staphylococcus aureus) BK12064. In words: MIC, MRSA BK12064. To be noted: MRSA BK12064; Gram +; 24 hours of incubation.
The test system of assay [29] is Enterococcus sp., BK11940. In words: MIC, Enterococcus sp., BK11940. To be noted: Enterococcus sp., BK11940; Gram +; 24 hours of incubation.
Assay [30] has as its system Serattia marcescens BK12426. In words: MIC, Serattia marcescens BK12426. The following applies: Serattia marcescens BK12426; Gram −; 24 hours of incubation.
In assay [31] the test system is Shigella sp., BK 12441. In words: MIC, Shigella sp., BK 12441. The following applies: Gram −, 24 hours of incubation. Type of assay: cell-based.
Assay [32] concerns Escherichia coli BK12336. In words: MIC, Escherichia coli BK12336. The following applies: Escherichia coli BK12336; Gram −; 24 hours of incubation.
Assay [33] concerns Enterobacter cloacii BK12315. In words: MIC, Enterobacter cloacii BK12315. To be noted: Enterobacter cloacii BK12315; Gram −; 24 hours of incubation.
Assay [34] relates to Serattia marcescens BK12421. In words: MIC, Serattia marcescens BK12421. To be noted: Serattia marcescens BK12421; Gram −; 24 hours of incubation.
Assay [35] has as its system Pseudomonas aeruginosa BK12347. In words: MIC, Pseudomonas aeruginosa BK12347. The following applies: Pseudomonas aeruginosa BK12347; Gram −; 24 hours of incubation.
Assay [36] concerns Bacillus subtilis BK11590. In words: MIC, Bacillus subtilis BK11590. In kind it is cell-based. To be noted: Gram +, 24 hours of incubation.
The test system of assay [37] is Candida albicans 90030. In words: Anti-fungal MIC, Candida albicans 90030. To be noted: Candida albicans, 90030, read-out: Anti-Fungal Activity (MIC).
Assay [38] deals with Cryptococcus neoformans CNH99. In words: Anti-fungal MIC, Cryptococcus neoformans CNH99. The following applies: Cryptococcus neoformans, CNH99, read-out: Anti-Fungal Activity (MIC).
Assay [39] relates to Candida albicans 5108^mdr. In words: Anti-fungal MIC, Candida albicans 5108^mdr. To be noted: Candida albicans, read-out: Anti-Fungal Activity (MIC).
For assay [40], the system named is Aspergillus fumigatus Rit 11. In words: Anti-fungal MIC, Aspergillus fumigatus Rit 11. To be noted: Aspergillus fumigatus, RIT11, read-out: Anti-Fungal Activity (MIC).
Assay [41] has as its system Candida crusei 6258^mdr. In words: microbe, parasite or virus in culture. To be noted: read-out: Anti-Fungal Activity (MIC).
Assay [42] has as its system Candida dlabrata 250^mdr. In words: Anti-fungal MIC, Candida dlabrata 250^mdr. To be noted: Candida, read-out: Anti-Fungal Activity (MIC).
Assay [43] has as its system Aspergillus fumigatus Rit 21. In words: Anti-fungal MIC, Aspergillus fumigatus Rit 21. The following applies: Aspergillus fumigatus, RIT21, read-out: Anti-Fungal Activity (MIC).
The subject of assay [44] is Aspergillus fumigatus Rit 1. In words: Anti-fungal MIC, Aspergillus fumigatus Rit 1. The following applies: Aspergillus fumigatus, RIT1, read-out: Anti-Fungal Activity (MIC).
Assay [45] relates to Candida parapsilosis 22019. In words: Anti-fungal MIC, Candida parapsilosis 22019. The following applies: 22019, read-out: Anti-Fungal Activity (MIC).
For assay [46], the system named is Candida albicans 90028. In words: Anti-fungal MIC, Candida albicans 90028. The following applies: Candida albicans, 90028, read-out: Anti-Fungal Activity (MIC).
The mark [47] stands for this setting: Mycobacterium tuberculosis, read-out: MIC.

Structures are written as SMILES. ≈ marks a conversion by molar mass, not a printed value. Where two headings read alike, the source gives them in different places. Bounds are passed on as bounds.

Turning to `CCCCN=C=S` [Compound 7, CH3CH2CH2CH2—N═C═S, reference compound], the “antimicrobial / growth-inhibitory activity (in words)” value in assay [1] was “very little activity”.
As for `CN=C=S` [Compound 8, CH3—N═C═S, reference compound], the “antimicrobial / growth-inhibitory activity (in words)” value in [1] was “very little activity”.
Consider `O=C(O)c1cc(N=C=S)ccc1-c1c2ccc(O)cc2cc2cc(O)ccc12` [Compound 14, reference compound], for which the “antimicrobial / growth-inhibitory activity (in words)” value in assay [1] was “poor growth-inhibitory activity”.
Still for that read-out and setting: then `C=CCN=C=S` [Compound 22, CH2═CH2CH2—N═C═S, reference compound], with “very little activity”.
Consider `O=C=NCc1ccccc1` [Compound 23, reference compound], for which the “antimicrobial / growth-inhibitory activity (in words)” value in assay [1] is recorded as “Neither of the chemically related derivatives—isocyanate (Compound 23) or thiocyanate (Compound 25)—displayed any activity”. In addition, the General antimicrobial activity entry in [1] (semi-quantitative score from number of sensitive bacterial strains at 100 and 200 μM, deduced from number of sensitive bacterial species and average MIC) was “−”.
For `S=C=NCC12CC3CC(CC(C3)C1)C2` [Compound 35], the “antimicrobial / growth-inhibitory activity (in words)” value in [1] is “poor growth-inhibitory activity”.
With `S=C=NCCCCCCN=C=S` [Compound 40, S═C═N—(CH2)6—N═C═S], the MIC stood at 2 µg/mL (≈ 9.98 µM) in assay [2]; 2 µg/mL (≈ 9.98 µM) in assay [3]; 4 µg/mL (≈ 20 µM) in assay [4]; 32 µg/mL (≈ 160 µM) in assay [5] (M. scrofulaceum); 2 µg/mL (≈ 9.98 µM) in assay [6]; 8 µg/mL (≈ 39.9 µM) in assay [7] (M. cansassi). Further, the MIC in assay [8] was 0.5 µg/mL (≈ 2.5 µM); in assay [9] (M. avium), 32 µg/mL (≈ 160 µM); in assay [10] (M. fortuitum), 16 µg/mL (≈ 79.9 µM); in assay [11], 2 µg/mL (≈ 9.98 µM); in assay [12], 2 µg/mL (≈ 9.98 µM); in assay [13] (M. intracellularie), 32 µg/mL (≈ 160 µM). The compound also displayed an MIC in assay [14] of 4 µg/mL (≈ 20 µM).
For `OCCCCCCCN=C=S` [Compound 44, HO—(CH2)7—N═C═S], the MIC in assay [15] was more than 64 µg/mL; in [16] it was more than 64 µg/mL; in [17], 8 µg/mL (≈ 46.2 µM); in assay [18], 8 µg/mL (≈ 46.2 µM); in [19], more than 64 µg/mL; in assay [20], 8 µg/mL (≈ 46.2 µM). For the same compound, the MIC is 8 µg/mL (≈ 46.2 µM) in [21]; more than 64 µg/mL in [22]; 64 µg/mL (≈ 369 µM) in assay [23]; 32 µg/mL (≈ 185 µM) in assay [24]; 64 µg/mL (≈ 369 µM) in [25]; more than 64 µg/mL in assay [26]. Besides, the MIC in assay [27] is 64 µg/mL (≈ 369 µM); in assay [28], 16 µg/mL (≈ 92.3 µM); in assay [29], 32 µg/mL (≈ 185 µM); in assay [30] it was more than 64 µg/mL; in assay [31], 64 µg/mL (≈ 369 µM); in assay [32], more than 64 µg/mL. The MIC in assay [33] is more than 64 µg/mL; in assay [34] it was more than 64 µg/mL; in assay [35], more than 64 µg/mL; in [36], 4 µg/mL (≈ 23.1 µM).
In the case of `OC(Cn1cncn1)(Cn1cncn1)c1ccc(F)cc1F` [Fluc, Fluconazol, reference compound], the MIC in [37] was 4 µg/mL (≈ 13.1 µM); in assay [38] it was 4 µg/mL (≈ 13.1 µM); in assay [39] it was 32 µg/mL (≈ 104 µM); in [40], more than 64 µg/mL; in assay [41], 32 µg/mL (≈ 104 µM); in [42], more than 64 µg/mL. In addition, the MIC is more than 64 µg/mL in assay [43], more than 64 µg/mL in [44], 2 µg/mL (≈ 6.53 µM) in [45] and 0.25 µg/mL (≈ 0.816 µM) in [46].
For `CO[C@H]1/C=C/O[C@@]2(C)Oc3c(C)c(O)c4c(O)c(c(/C=N/N5CCN(C)CC5)c(O)c4c3C2=O)NC(=O)/C(C)=C\C=C\[C@H](C)[C@H](O)[C@@H](C)[C@@H](O)[C@@H](C)[C@H](OC(C)=O)[C@@H]1C` [Rif, Rifampicin, reference compound], the MIC worked out at 0.5 µg/mL (≈ 0.608 µM) in [2] (Mycobacterium tuberculosis variant bovis BCG, BCG); 0.5 µg/mL (≈ 0.608 µM) in [3] (setting [47]); 0.5 µg/mL (≈ 0.608 µM) in [4] (setting [47]); 0.5 µg/mL (≈ 0.608 µM) in assay [5] (Mycobacterium scrofulaceum); 0.5 µg/mL (≈ 0.608 µM) in [6] (setting [47]); 0.5 µg/mL (≈ 0.608 µM) in assay [7]. Moreover, the MIC in assay [8] (setting [47]) is more than 4 µg/mL; in assay [9] (Mycobacterium avium), 0.5 µg/mL (≈ 0.608 µM); in [10] (Mycolicibacterium fortuitum) it was more than 4 µg/mL; in assay [11] (setting [47]), 0.5 µg/mL (≈ 0.608 µM); in [12] (setting [47]) it was more than 4 µg/mL; in assay [13], 0.5 µg/mL (≈ 0.608 µM). The MIC in assay [14] (setting [47]) is 0.5 µg/mL (≈ 0.608 µM).

The values above are taken from patent publication US9586907B2, “Isothiocyanate compounds, pharmaceutical compositions, and uses thereof” (priority 2006, dated 2017).
